Source: paper PMC7123187 (HCV: The Journey from Discovery to a Cure, 2018)
Read-outs that look alike come from different tables or passages of the source.

What was measured:
[1] = target: recombinant wild-type NS5B (genotype 1b, Con1) (Hepatitis C virus genotype 1b, UniProt Q9WMX2); experiment: biochemical
NS5B P495L = NS5B P495L (Hepatitis C virus genotype 1b, UniProt Q9WMX2, P2914L); experiment: biochemical
[2] = system: HCV genotype 1b (Con1) replicon in Huh-7; experiment: microbe, parasite or virus in culture; format: cell-based; conditions: Hepatitis C virus, GETYPE1B, Huh-7, read-out: potency in the replicon assays
in vitro [3] = format: in vitro ADME; conditions: human, microsomes
[4] = system: BVDV, polio, rhino, corona, coxsackie, influenza, and human immunodeficiency viruses (HIV); experiment: organism not typed; format: cell-based; conditions: read-out: EC50 against panel of viruses
[5] = target: human phosphodiesterase 4; experiment: Phosphodiesterase 4 functional assay; format: biochemical; conditions: read-out: IC50 phosphodiesterase 4 functional assay
[6] = target: human pregnane X receptor (hPXR) (Homo sapiens, UniProt O75469); conditions: at 5.56 μM
[7] = rat; for liver levels: satellite study
in vivo = conditions: rat
in vitro [8] = conditions: monkey, microsomes
CYP 3A4 = CYP 3A4 (Homo sapiens, UniProt P08684); experiment: in vitro
in vitro [9] = experiment: in vitro
physchem = conditions: pKa values, zwitterionic form
[10] = system: chronic HCV genotype 1 infection; conditions: patients, cited from earlier work

Sequence of CYP 3A4 (P08684 whole entry): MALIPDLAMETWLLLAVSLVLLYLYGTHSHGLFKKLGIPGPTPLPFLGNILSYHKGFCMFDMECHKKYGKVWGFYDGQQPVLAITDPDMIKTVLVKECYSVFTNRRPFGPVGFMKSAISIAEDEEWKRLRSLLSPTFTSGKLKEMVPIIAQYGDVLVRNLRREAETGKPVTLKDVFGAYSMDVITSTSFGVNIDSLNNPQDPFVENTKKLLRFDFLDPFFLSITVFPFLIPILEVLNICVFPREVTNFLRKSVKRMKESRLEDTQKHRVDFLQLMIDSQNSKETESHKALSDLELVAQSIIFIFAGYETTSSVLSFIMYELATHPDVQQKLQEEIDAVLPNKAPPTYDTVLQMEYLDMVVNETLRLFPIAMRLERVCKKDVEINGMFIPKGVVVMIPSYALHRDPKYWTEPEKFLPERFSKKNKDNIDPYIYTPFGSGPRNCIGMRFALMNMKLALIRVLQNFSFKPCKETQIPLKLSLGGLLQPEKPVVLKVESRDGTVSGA
Sequence of human pregnane X receptor (hPXR) (O75469 whole entry): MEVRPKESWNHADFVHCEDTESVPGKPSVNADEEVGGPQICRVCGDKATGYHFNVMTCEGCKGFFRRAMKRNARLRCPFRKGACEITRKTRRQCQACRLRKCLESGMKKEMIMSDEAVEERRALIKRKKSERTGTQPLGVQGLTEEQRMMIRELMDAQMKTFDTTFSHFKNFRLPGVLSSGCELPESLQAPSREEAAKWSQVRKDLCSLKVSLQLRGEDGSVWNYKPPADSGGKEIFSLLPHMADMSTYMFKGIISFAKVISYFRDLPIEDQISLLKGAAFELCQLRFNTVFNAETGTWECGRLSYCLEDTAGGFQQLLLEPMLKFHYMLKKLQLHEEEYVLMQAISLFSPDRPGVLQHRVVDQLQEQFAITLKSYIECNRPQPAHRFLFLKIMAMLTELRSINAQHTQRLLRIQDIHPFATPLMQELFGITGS

COc1ccc2c(c1)[C@@H]1C[C@]1(C(=O)N1[C@@H]3CC[C@H]1CN(C)C3)Cn1c-2c(C2CCCCC2)c2ccc(C(=O)NS(=O)(=O)N(C)C)cc21 [Compound 66, beclabuvir]
IC50 [1]: 0.02 µM | IC50 (NS5B P495L): 0.19 µM | EC50 [2]: < 0.01 µM | half-life (in vitro [3]): 53 min | EC50 [4]: > 14 µM | IC50 [5]: > 10 µM | hPXR transactivation Y max [6]: 8.1 ± 1.9 | liver levels ([7]; 4 h following oral dosing): 24,400 nM | liver levels ([7]; 24 h following oral dosing): 1,700 nM | Cl ([7]; in vivo, iv, 5 mg/kg): 3.5 (±0.8) mL/min/kg | bound to human serum: 98% | AUC(0-inf) (in vivo; iv, 5 mg/kg): 30 µM·h | Cmax (in vivo; iv, 5 mg/kg): 12.1 µM | half-life (in vivo; iv, 5 mg/kg): 672 min | AUC(0-inf) (in vivo; po, 10 mg/kg): 39.3 µM·h | Cmax (in vivo; po, 10 mg/kg): 3.26 µM | half-life (in vitro [8]): 23 min | IC50 (CYP 3A4): > 40 µM | CC50 (in vitro [9]): 14 to 48 µM | pKa (physchem): 4.6 | decline in viral load ([10]; 300 mg single dose, 24 h post-dosing): approximately 2.5 log10 IU/mL | tolerability ([10]; single doses 100-900 mg): well tolerated
